Test results: publication PMC5841354, “Gomesin peptides prevent proliferation and lead to the cell death of devil facial tumour disease cells” (Cell Death Discovery, 2018)
Where a SMILES comes first, the peptide text is derived from it. Bridges are numbered along the chain shown (N, C = ends). [ ]: non-standard residue; d: D form. pGlu = O=C1CC[C@@H](C(=O)O)N1

Legend:
DFTD4 cells [1] = assay: MTT cell viability, DFTD4 cells; type: cell-based, Tasmanian devil (Sarcophilus harrisii); settings: 48 h; for anti-proliferative / cytotoxic activity compared with AgGom: DFTD cell lines (DFTD1, DFTD2, DFTD4); for cell viability / anti-proliferative activity in DFTD4 cells: 50 µg/mL
From the text: (§1) All DFTD (DFTD1, DFTD2, and DFTD4) and fibroblast (FIBS) cell lines were obtained from the Department of Primary Industries, Parks, Water, and Environment, State Government of Tasmania (DPIPWE) and were established as part of management plan and adhere to a standard operating practice. The DFTD1 cell line with catalogue number 3287 is derived from the tumour from a female devil (tag number: 06/2887) collected at St Marys, Eastern Tasmania in 2006. DFTD2 cell line with catalogue number 8961 was developed from a tumour from a male devil (tag number: 12/0625) collected at Kempton, Northern Tasmania in 2012. The DFTD4 cell line with catalogue number 4099 was developed from the tumour of a male devil (tag number: 07/0192) that was collected at Freycinet, east coast of Tasmania in 2007 and Fibroblasts cells (FIBS) with catalogue number 497 were obtained from a healthy devil male pup (tag number: 05/0962) held at Mount Pleasant, Southeastern of Tasmania in 2005.
(§2) Devil Facial Tumor cancer cell lines, and the control Tasmanian Devil fibroblast (FIBS) healthy cell line were maintained in a humidified incubator at 35 °C and 5% CO2. The DFTD cell lines were cultured in RPMI-1640 medium supplemented with 10% FCS, and 2 mM Glutamax. The FIBS was grown in GIBCO AmnioMAX-C100 Basal Medium liquid, containing AmnioMAX-C100 supplement. Penicillin/streptomycin (PS) (100 U/ml each) was added to both media. The cells were passaged at ~90% confluency. Functional studies were performed with passages up to 20. All cell lines were mycoplasma free.
(§3) Cell viability as an indicator of the number of viable and proliferative cells was measured by MTT according to the protocol of the manufacturer (Sigma-Aldrich, Australia). In brief, 8000 DFTD and 5000 FIBS cells/well were seeded in a 96-flat adherent microtiter well plate for 24 h to allow cell adhesion. Gomesin peptides and/or analogues were then added to the plates to measure MTT reduction. Plates were measured after 48 h at 540 nm absorbance in a microplate reader (BIOTEK PowerWave XS, USA). 0.1% SDS was used as a positive control (100% toxicity). A row of untreated cells was used to define 100% viability and blank wells containing only media were used to extract background. The concentration of gomesin peptides causing 50% inhibition (EC50) in DFTD and FIBS cells was determined using GraphPad Prism Software (Graphpad Inc, USA).

FIBS cells = assay: MTT cell viability, non-transformed fibroblasts (FIBS); type: cell-based, Tasmanian devil (Sarcophilus harrisii); settings: 50 µg/mL, 48 h
From the text: as §1, §2, §3

DFTD4 cells [2] = assay: Annexin V-FITC/PI apoptosis and necrosis; type: cell-based, Tasmanian devil (Sarcophilus harrisii); settings: 10 µM, 24 h, positive control
Experimental: Apoptosis in DFTD4 cells treated with AgGom or HiGom was measured using an Annexin V-FITC Apoptosis detection kit in combination with a Canto II high-throughput fluorescence-activated cell sorter (BD Biosciences, USA). Briefly, cells were seeded at a density of 100,000 cells/well in a round-bottom 96-well plate and treated with 50 µg/mL AgGom or HiGom for 24 h. The cells were collected mechanically, washed twice with PBS and once with wash buffer provided by the manufacturer. Cells were stained simultaneously with FITC-labelled annexin V and PI for 30 min in the dark and at room temperature before being analysed.

DFTD = settings: human chemotherapeutic agents in Tasmanian devils; cited from earlier work
From the text: With no treatment available for DFTD, scientists maintain captive, disease-free breeding populations that are released into the wild. Major research efforts are focused on understanding the molecular mechanisms of DFTD and why tumour cells fail to stimulate an immune response in the Tasmanian Devil, including the dramatic downregulation of the expression of Major Histocompatibility Complex (MHC) Class I genes[5]–[9]. Previous trials to treat DFTD using human chemotherapeutic agents, such as vincristine, doxorubicin, and carboplatin have proven to be unsuccessful[10],[11]. In this study, we pos ...

Row | Compound | anti-proliferative / cytotoxic activity compared with AgGom (DFTD4 cells [1]) | deleterious effects on FIBS viability (FIBS cells) | outcome of trials to treat DFTD (DFTD) | cell viability / anti-proliferative activity in DFTD4 cells (DFTD4 cells [1]) | other results
1 | CC(C)C[C@@H]1NC(=O)[C@H](CCCNC(=N)N)NC(=O)[C@H](CCCNC(=N)N)NC(=O)[C@@H](NC(=O)[C@@H]2CCC(=O)N2)CSSC[C@@H](C(=O)N[C@@H](CCCNC(=N)N)C(=O)NCC(=O)N[C@@H](CCCNC(=N)N)C(N)=O)NC(=O)[C@H](Cc2ccc(O)cc2)NC(=O)[C@H]([C@@H](C)O)NC(=O)[C@H](C(C)C)NC(=O)[C@@H]2CSSC[C@H](NC1=O)C(=O)N[C@@H](Cc1ccc(O)cc1)C(=O)N[C@@H](CCCCN)C(=O)N[C@@H](CC(N)=O)C(=O)N[C@@H](CCCNC(=N)N)C(=O)N2 [AgGomKN] ([pGlu]CRRLCYKNRCVTYCRGR-NH2; disulfide 2-15, 6-11) | higher anti-proliferative activity than AgGom | minimal deleterious effects |  |  | 
2 | CC(C)C[C@@H]1NC(=O)[C@H](CCCNC(=N)N)NC(=O)[C@H](CCCNC(=N)N)NC(=O)[C@@H](NC(=O)[C@@H]2CCC(=O)N2)CSSC[C@@H](C(=O)N[C@@H](CCCNC(=N)N)C(=O)NCC(=O)N[C@@H](CCCNC(=N)N)C(N)=O)NC(=O)[C@H](Cc2ccc(O)cc2)NC(=O)[C@H]([C@@H](C)O)NC(=O)[C@H](C(C)C)NC(=O)[C@@H]2CSSC[C@H](NC1=O)C(=O)N[C@@H](Cc1ccc(O)cc1)C(=O)N[C@@H](CCCCN)C(=O)N[C@@H](CCCNC(=N)N)C(=O)N[C@@H](CCCNC(=N)N)C(=O)N2 [AgGomKR] ([pGlu]CRRLCYKRRCVTYCRGR-NH2; disulfide 2-15, 6-11) | higher anti-proliferative activity than AgGom | minimal deleterious effects |  |  | 
3 | CC[C@H](C)[C@@H]1NC(=O)[C@H](CCCNC(=N)N)NC(=O)[C@H](CCCNC(=N)N)NC(=O)[C@@H](NC(=O)[C@@H]2CCC(=O)N2)CSSC[C@@H](C(=O)N[C@@H](CCCNC(=N)N)C(=O)NCC(=O)N[C@@H](CCCNC(=N)N)C(N)=O)NC(=O)[C@H](Cc2ccc(O)cc2)NC(=O)[C@H]([C@@H](C)O)NC(=O)[C@H](Cc2ccccc2)NC(=O)[C@@H]2CSSC[C@H](NC1=O)C(=O)NCC(=O)N[C@@H](CCCNC(=N)N)C(=O)N[C@@H](CCCNC(=N)N)C(=O)N[C@@H](CCCNC(=N)N)C(=O)N2 [SpGom] ([pGlu]CRRICGRRRCFTYCRGR-NH2; disulfide 2-15, 6-11) | higher anti-proliferative activity than AgGom | minimal deleterious effects |  |  | 
4 | CC[C@@]1(O)C(=O)OCc2c1cc1n(c2=O)Cc2cc3ccccc3nc2-1 [camptothecin, reference compound] |  |  |  |  | late apoptosis (DFTD4 cells [2]): > 30%
5 | N.N.O=C([O-])C1(C(=O)[O-])CCC1.[Pt+2] [carboplatin] |  |  | unsuccessful |  | 
6 | COc1cccc2c1C(=O)c1c(O)c3c(c(O)c1C2=O)C[C@@](O)(C(=O)CO)C[C@@H]3O[C@H]1C[C@H](N)[C@H](O)[C@H](C)O1 [doxorubicin] |  |  | unsuccessful |  | 
7 | CC[C@]1(O)C[C@H]2CN(CCc3c([nH]c4ccccc34)[C@@](C(=O)OC)(c3cc4c(cc3OC)N(C=O)[C@H]3[C@@](O)(C(=O)OC)[C@H](OC(C)=O)[C@]5(CC)C=CCN6CC[C@]43[C@@H]65)C2)C1 [vincristine] |  |  | unsuccessful |  | 
8 | ZCARLCYKQRCVTYCRGR-NH2 (bicyclic or more) [AgGomR3A, AgGom analogue R3A] |  |  |  | eradicated the anti-proliferative activity | 
9 | ZCRRACYKQRCVTYCRGR-NH2 (bicyclic or more) [AgGomL5A, AgGom analogue L5A] |  |  |  | eradicated the anti-proliferative activity | 
10 | ZCRRLCYKQRCATYCRGR-NH2 (bicyclic or more) [AgGomV12A, AgGom analogue V12A] |  |  |  | eradicated the anti-proliferative activity | 
